Laboratory results reported in ChEMBL document CHEMBL1201862, “PubChem BioAssay data set” (2004).
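Cells were grown in 96-well plates and exposed to each compound for 48 hours at five concentrations; endpoints were interpolated linearly between bracketing concentrations, or set to the highest concentration if not reached. GI50 is the concentration that inhibits growth by half.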 The source made the active and inactive calls. No stated cut-off is given here; in the data, active = GI50 up to about 1.1 µM and inactive = higher.

Key:
Assay in all cases: NCI tumour cell line growth inhibition, 48 h
786-0 = tested on: 786-0
A498 = tested on: A498
A549 = tested on: A549
ACHN = tested on: ACHN
CAKI-1 = tested on: CAKI-1
CCRF-CEM = tested on: CCRF-CEM
COLO 205 = tested on: COLO 205
DLD-1 = tested on: DLD-1
DMS-114 = tested on: DMS-114
DMS-273 = tested on: DMS-273
EKVX = tested on: EKVX
HCC 2998 = tested on: HCC 2998
HCT-116 = tested on: HCT-116
HCT-15 = tested on: HCT-15
HL-60 = tested on: HL-60
HOP-18 = tested on: HOP-18
HOP-62 = tested on: HOP-62
HOP-92 = tested on: HOP-92
HT-29 = tested on: HT-29
IGROV-1 = tested on: IGROV-1
K562 = tested on: K562
KM-20L2 = tested on: KM-20L2
KM12 = tested on: KM12
LOX IMVI = tested on: LOX IMVI
LXFL 529 = tested on: LXFL 529
M14 = tested on: M14
M19-MEL = tested on: M19-MEL
MOLT-4 = tested on: MOLT-4
Malme-3M = tested on: Malme-3M
NCI-H226 = tested on: NCI-H226
NCI-H23 = tested on: NCI-H23
NCI-H460 = tested on: NCI-H460
NCI-H522 = tested on: NCI-H522
OVCAR-3 = tested on: OVCAR-3
OVCAR-4 = tested on: OVCAR-4
OVCAR-5 = tested on: OVCAR-5
OVCAR-8 = tested on: OVCAR-8
RPMI-8226 = tested on: RPMI-8226
RXF 393 = tested on: RXF 393
RXF 631 = tested on: RXF 631
SF-268 = tested on: SF-268
SF-295 = tested on: SF-295
SF-539 = tested on: SF-539
SK-MEL-28 = tested on: SK-MEL-28
SK-MEL-2 = tested on: SK-MEL-2
SK-MEL-5 = tested on: SK-MEL-5
SK-OV-3 = tested on: SK-OV-3
SN12C = tested on: SN12C
SNB-19 = tested on: SNB-19
SNB-75 = tested on: SNB-75
SNB-78 = tested on: SNB-78
SR = tested on: SR
TK-10 = tested on: TK-10
U-251 = tested on: U-251
UACC-257 = tested on: UACC-257
UACC-62 = tested on: UACC-62
UO-31 = tested on: UO-31
XF498 = tested on: XF498

With `CC(C)(C)NNC(=O)/C(=C/c1ccc(Oc2ccc(Cl)c(Cl)c2)cc1)NC(=O)c1ccccc1` the GI50 (786-0) was 59.6 µM (inactive), the GI50 (A498) was > 100 µM (inactive) and the GI50 (A549) was > 100 µM (inactive). The GI50 (ACHN) was > 100 µM (inactive), the GI50 (CAKI-1) was > 100 µM (inactive) and the GI50 (CCRF-CEM) was 69.5 µM (inactive). The GI50 (COLO 205) was 16.2 µM (inactive), the GI50 (DLD-1) was 31.1 µM (inactive) and the GI50 (DMS-114) was 18.5 µM (inactive). The GI50 (DMS-273) was 21.5 µM (inactive), the GI50 (EKVX) was > 100 µM (inactive) and the GI50 (HCC 2998) was > 100 µM (inactive). For the same molecule, the GI50 (HCT-116) was > 100 µM (inactive), the GI50 (HCT-15) was over 100 µM and the GI50 (HL-60) was 40.5 µM (inactive). The GI50 (HOP-18) was > 100 µM (inactive), the GI50 (HOP-62) was > 100 µM (inactive) and the GI50 (HOP-92) was > 100 µM (inactive). The GI50 (HT-29) was > 100 µM (inactive), the GI50 (IGROV-1) was > 100 µM (inactive) and the GI50 (K562) was 42.5 µM (inactive). For the same molecule, the GI50 (KM-20L2) was 95.3 µM (inactive), the GI50 (KM12) was > 100 µM (inactive) and the GI50 (LOX IMVI) was 18.9 µM (inactive). The GI50 (LXFL 529) was > 100 µM (inactive), the GI50 (M14) was > 100 µM (inactive) and the GI50 (M19-MEL) was > 100 µM (inactive). The GI50 (MOLT-4) was 65 µM (inactive), the GI50 (Malme-3M) was > 100 µM (inactive) and the GI50 (NCI-H226) was > 100 µM (inactive). The GI50 (NCI-H23) was > 100 µM (inactive), the GI50 (NCI-H460) was 40.6 µM (inactive) and the GI50 (NCI-H522) was > 100 µM (inactive). For the same molecule, the GI50 (OVCAR-3) was > 100 µM (inactive), the GI50 (OVCAR-4) was > 100 µM (inactive) and the GI50 (OVCAR-5) was > 100 µM (inactive). The GI50 (OVCAR-8) was > 100 µM (inactive), the GI50 (RPMI-8226) was 22.1 µM (inactive) and the GI50 (RXF 393) was > 100 µM (inactive). For the same molecule, the GI50 (RXF 631) was 34 µM (inactive), the GI50 (SF-268) was > 100 µM (inactive) and the GI50 (SF-295) was > 100 µM (inactive). For the same molecule, the GI50 (SF-539) was > 100 µM (inactive), the GI50 (SK-MEL-28) was > 100 µM (inactive) and the GI50 (SK-MEL-2) was > 100 µM (inactive). For the same molecule, the GI50 (SK-MEL-5) was > 100 µM (inactive), the GI50 (SK-OV-3) was > 100 µM (inactive) and the GI50 (SN12C) was > 100 µM (inactive). The GI50 (SNB-19) was > 100 µM (inactive), the GI50 (SNB-75) was > 100 µM (inactive) and the GI50 (SNB-78) was > 100 µM (inactive). For the same molecule, the GI50 (SR) was 16.9 µM (inactive), the GI50 (TK-10) was > 100 µM (inactive) and the GI50 (U-251) was > 100 µM (inactive). For the same molecule, the GI50 (UACC-257) was > 100 µM (inactive), the GI50 (UACC-62) was > 100 µM (inactive) and the GI50 (UO-31) was > 100 µM (inactive). For the same molecule, the GI50 (XF498) was > 100 µM (inactive).
